Assay results taken from patent US20040185500A1, “Use of disease-associated gene” (priority 2001, published 2004).

Molecular target: T1, human CLCA4-expressing CHO cells (Homo sapiens, UniProt Q14CN2)
T1 construct: expressed in transfected cells
T1 sequence (Q14CN2 22-919): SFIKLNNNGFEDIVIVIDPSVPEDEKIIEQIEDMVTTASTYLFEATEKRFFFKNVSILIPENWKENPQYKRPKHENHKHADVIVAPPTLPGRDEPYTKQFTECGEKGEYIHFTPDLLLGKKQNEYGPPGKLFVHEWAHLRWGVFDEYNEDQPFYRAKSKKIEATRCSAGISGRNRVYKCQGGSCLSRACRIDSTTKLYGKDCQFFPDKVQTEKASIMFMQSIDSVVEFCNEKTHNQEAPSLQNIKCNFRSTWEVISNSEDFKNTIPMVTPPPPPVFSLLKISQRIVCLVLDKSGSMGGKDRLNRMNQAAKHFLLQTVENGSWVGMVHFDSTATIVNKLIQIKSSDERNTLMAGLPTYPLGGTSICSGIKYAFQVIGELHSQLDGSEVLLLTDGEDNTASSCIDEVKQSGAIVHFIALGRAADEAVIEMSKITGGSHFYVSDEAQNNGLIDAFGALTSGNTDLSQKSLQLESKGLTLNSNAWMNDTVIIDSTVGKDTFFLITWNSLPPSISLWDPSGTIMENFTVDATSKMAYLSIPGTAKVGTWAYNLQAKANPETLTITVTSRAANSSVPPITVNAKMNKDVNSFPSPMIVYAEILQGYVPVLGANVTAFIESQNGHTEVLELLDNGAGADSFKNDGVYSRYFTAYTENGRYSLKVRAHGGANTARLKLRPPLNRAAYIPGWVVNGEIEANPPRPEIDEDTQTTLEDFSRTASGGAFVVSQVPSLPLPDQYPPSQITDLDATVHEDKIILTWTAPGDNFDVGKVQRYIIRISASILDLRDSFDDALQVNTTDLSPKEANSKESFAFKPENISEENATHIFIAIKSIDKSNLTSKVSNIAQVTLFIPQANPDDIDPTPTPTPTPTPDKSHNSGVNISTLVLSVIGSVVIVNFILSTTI
Experiment: Ca2+ dependent Cl- channel activity, FLIPR Membrane Potential Assay, ionomycin stimulation
Type: cell-based
Conditions: 2 μM ionomycin, compound added, then cells left for 10 min at room temperature, FIG. 3
Method: The ClCA4 expression plasmid pcDNA-hCLCA4 described in (2) above was introduced into CHO cells using FuGENE 6 (Roche Diagnostics) according to the manual accompanying it. The cells were subjected to selective culture in 1 mg/ml neomycin (G418) (Gibco BRL)-added MEM-α medium (Gibco BRL) for 10 days, and cells growing in this medium were obtained as CLCA4 expressing CHO cells. These CLCA4-expressing CHO cells and parent strain CHO cells were plated in 96-well black clear bottom plates (Corning) at 4×10^4 cells/well and cultured overnight. Cl^− channel activity was measured using FLIPR Membrane Potential Assay Kit (Molecular Device). A potential sensitive dye (Component A) diluted with 20 mM HEPES-containing HBSS buffer (Component B) was added to the plates at […] and reacted at 37° C. for 30 min. Then, the plates were set in FLIPR (Molecular Device) and, after addition of ionomycin (Wako Purechemical industries) at a final concentration of 2 μM, changes in fluorescence were observed as Cl^− channel activity. In both parent strain CHO cells and human CLCA4-expressing CHO cells, increase in fluorescence intensity was hardly recognized in the absence of stimulation. When stimulated with 2 μM ionomycin, increase in fluorescence intensity was observed only in human CLCA4-expressing CHO cells (FIG. 2). […]

increase in fluorescence intensity caused by stimulation with ionomycin (Cl- channel activity): inhibited
SMILES: O=C(O)c1cccnc1Nc1cccc(C(F)(F)F)c1 [niflumic acid]
